Results reported in PubChem BioAssay (NCI).
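A five-concentration, 48-hour dose response in 96-well plates underlies each endpoint, interpolated linearly between surrounding concentrations. TGI: concentration producing complete growth inhibition.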

Tests used:
Test in all cases: DTP human tumour cell line panel, 48 h
[1] = system: 786-0 renal
[2] = system: A498 renal
[3] = system: A549 NSCLC
[4] = system: ACHN renal
[5] = system: CAKI-1 renal
[6] = system: CCRF-CEM leukemia
[7] = system: COLO 205 colon
[8] = system: DLD-1 colon
[9] = system: DMS 114 small cell lung
[10] = system: DMS 273 small cell lung
[11] = system: EKVX NSCLC
[12] = system: HCC-2998 colon
[13] = system: HCT-116 colon
[14] = system: HCT-15 colon
[15] = system: HL-60(TB) leukemia
[16] = system: HOP-18 NSCLC
[17] = system: HOP-62 NSCLC
[18] = system: HOP-92 NSCLC
[19] = system: HT29 colon
[20] = system: IGROV1 ovarian
[21] = system: K-562 leukemia
[22] = system: KM12 colon
[23] = system: KM20L2 colon
[24] = system: LOX IMVI melanoma
[25] = system: M14 melanoma
[26] = system: M19-MEL melanoma
[27] = system: MALME-3M melanoma
[28] = system: MOLT-4 leukemia
[29] = system: NCI-H226 lung
[30] = system: NCI-H23 lung
[31] = system: NCI-H460 lung
[32] = system: NCI-H522 lung
[33] = system: OVCAR-3 ovarian
[34] = system: OVCAR-5 ovarian
[35] = system: OVCAR-8 ovarian
[36] = system: RPMI-8226 leukemia
[37] = system: RXF 393 renal
[38] = system: RXF-631 renal
[39] = system: SF-268 CNS
[40] = system: SF-295 CNS
[41] = system: SK-MEL-2 melanoma
[42] = system: SK-MEL-28 melanoma
[43] = system: SK-MEL-5 melanoma
[44] = system: SK-OV-3 ovarian
[45] = system: SN12C renal
[46] = system: SNB-19 CNS
[47] = system: SNB-75 CNS
[48] = system: SNB-78 CNS
[49] = system: SR leukemia
[50] = system: SW-620 colon
[51] = system: TK-10 renal
[52] = system: U251 CNS
[53] = system: UACC-257 melanoma
[54] = system: UACC-62 melanoma
[55] = system: UO-31 renal
[56] = system: XF 498 CNS
[57] = system: LXFL 529 NSCLC
[58] = system: SF-539 CNS
[59] = system: OVCAR-4 ovarian

Measured: TGI

CCCCNC(=O)NNC(=O)c1cc(/C=C/c2cccc([N+](=O)[O-])c2)ncn1
59.8 µM: [36]
33.7 µM: [50]
> 100 µM: [1] | [2] | [3] | [4] | [5] | [6] | [7] | [8] | [9] | [10] | [11] | [12] | [13] | [14] | [15] | [16] | [17] | [18] | [19] | [20] | [21] | [22] | [23] | [24] | [25] | [26] | [27] | [28] | [29] | [30] | [31] | [32] | [33] | [34] | [35] | [37] | [38] | [39] | [40] | [41] | [42] | [43] | [44] | [45] | [46] | [47] | [48] | [49] | [51] | [53] | [54] | [55] | [56]
44.8 µM: [52]

Cn1c2c(c3ccccc31)CCN(CCCN1CCN(c3cccc(Cl)c3)CC1)C2=O
27.6 µM: [56]
34.5 µM: [1]
83.1 µM: [16]
90.7 µM: [38]
77.4 µM: [35]
42.5 µM: [26]
10 µM: [2]
35 µM: [36]
35.8 µM: [21]
34.3 µM: [42]
66.1 µM: [20]
12.7 µM: [52]
38.4 µM: [5]
40.1 µM: [25]
44.4 µM: [9]
32.2 µM: [57]
18.7 µM: [18]
41.1 µM: [17]
86.2 µM: [46]
11.1 µM: [23]
84.5 µM: [10]
24.2 µM: [15]
79.9 µM: [32]
29.9 µM: [31]
39.2 µM: [54]
62.4 µM: [45]
96.8 µM: [4]
32.1 µM: [58]
24.8 µM: [13]
55.3 µM: [28]
32.6 µM: [55]
> 100 µM: [3] | [6] | [8] | [11] | [14] | [39] | [44] | [50] | [51]
36.1 µM: [43]
66.9 µM: [30]
50.8 µM: [24]
49.7 µM: [37]
31.8 µM: [7]
29 µM: [19]

[O-][n+]1c2cc3c(cc2[n+]([O-])c2c(O)cccc21)CN(CCN1CCOCC1)C3
30.5 µM: [7]
50.2 µM: [19]
47 µM: [6]
28.7 µM: [52]
40.9 µM: [55]
53 µM: [41]
71.7 µM: [36]
62.1 µM: [57]
31.8 µM: [22]
40 µM: [40]
58.9 µM: [44]
71 µM: [30]
19 µM: [32]
39.5 µM: [20]
25.4 µM: [9]
54.2 µM: [21]
36.8 µM: [15]
> 100 µM: [1] | [2] | [3] | [5] | [10] | [14] | [16] | [23] | [25] | [27] | [29] | [59] | [34] | [38] | [42] | [43] | [45] | [46] | [47] | [48] | [51]
7.83 µM: [49]
28.1 µM: [31]
32.5 µM: [35]
87.2 µM: [53]
68 µM: [11]
42.4 µM: [37]
60.6 µM: [39]
74.7 µM: [54]
66.9 µM: [4]
32.3 µM: [18]
50.8 µM: [33]
26.9 µM: [28]
33.5 µM: [56]
33.2 µM: [13]
49 µM: [26]

CC(=O)c1cccc(NC(=O)C(=O)C(C(=O)NN)c2ccccc2)c1 (stereo unspecified)
> 100 µM: [1] | [2] | [3] | [4] | [5] | [6] | [7] | [8] | [9] | [10] | [11] | [12] | [13] | [14] | [16] | [17] | [18] | [19] | [20] | [21] | [22] | [23] | [24] | [57] | [25] | [26] | [27] | [28] | [29] | [30] | [31] | [32] | [33] | [59] | [34] | [35] | [36] | [37] | [38] | [39] | [58] | [41] | [42] | [43] | [44] | [45] | [46] | [47] | [50] | [51] | [52] | [53] | [54] | [55] | [56]

O=C(/C=C/c1ccccc1O)c1cccs1
> 100 µM: [1] | [3] | [4] | [5] | [6] | [7] | [8] | [10] | [11] | [12] | [13] | [14] | [15] | [16] | [17] | [19] | [20] | [21] | [22] | [23] | [24] | [57] | [25] | [26] | [27] | [28] | [29] | [30] | [31] | [32] | [33] | [59] | [34] | [35] | [37] | [38] | [39] | [40] | [58] | [41] | [42] | [43] | [44] | [45] | [46] | [47] | [48] | [49] | [50] | [51] | [52] | [53] | [54] | [55] | [56]
45.5 µM: [2]
